According to US9006139B2, “Active compound combinations” (Bayer Intellectual Property GmbH, priority 2009, dated 2015):
Where two headings read alike, the source gives them in different places.

Experiments:
Assay type in all cases: in vivo
[1] = test system: Venturia inaequalis; assay: Venturia test (apples)/protective; conditions: Table D
Experimental: (§1) Solvent: 24.5 parts by weight of acetone
(§2) • 24.5 parts by weight of dimethylacetamide Emulsifier: 1 part by weight of alkylaryl polyglycol ether
(§3) To produce a suitable preparation of active compound, 1 part by weight of active compound is mixed with the stated amounts of solvent and emulsifier, and the concentrate is diluted with water to the desired concentration. To test for protective activity, young plants are sprayed with the preparation of active compound at the stated rate of application. After the spray coating has dried on, the plants are inoculated with an aqueous conidia suspension of the causal agent of apple scab (Venturia inaequalis) and then remain for 1 day in an incubation cabinet at approximately 20° C. and a relative atmospheric humidity of 100%. The plants are then placed in a greenhouse at approximately 21° C. and a relative atmospheric humidity of approximately 90%. The test is evaluated 10 days after the inoculation. 0% means an efficacy which corresponds to that of the control, while an efficacy of 100% means that no disease is observed.

[2] = test system: Plasmopara viticola; assay: Plasmopara test (grapevines)/protective; conditions: Table B; 50 ppm a.i.
Experimental: as §1, §2
as §3, with “aqueous spore” for “aqueous conidia”, “of Plasmopara viticola” for “of the causal agent of apple scab (Venturia inaequalis)”, “The plant is subsequently” for “The plants are then”, “placed for 4 days” for “placed”, “The plants are then misted and placed for 1 day in an incubation cabinet. The” for “The”, “evaluated 6” for “evaluated 10”

[3] = test system: Leptosphaeria nodorum; assay: Leptosphaeria nodorum test (wheat)/preventive; conditions: Parastagonospora nodorum, 192 h, Table K, read-out: Efficacy in % found
Experimental: (§4) Solvent: 49 parts by weight of n,n-dimethylacetamid
(§5) Emulsifier: 1 part by weight of alkylaryl polyglycol ether
(§6) To produce a suitable preparation of active compound, 1 part by weight of active compound or active compound combination is mixed with the stated amounts of solvent and emulsifier, and the concentrate is diluted with water to the desired concentration. To test for preventive activity, young plants are sprayed with the preparation of active compound or active compound combination at the stated rate of application. After the spray coating has been dried, the plants are sprayed with a spore suspension of Leptosphaeria nodorum. The plants remain for 48 hours in an incubation cabinet at approximately 20° C. and a relative atmospheric humidity of approximately 100%. The plants are placed in the greenhouse at a temperature of approximately 22° C. and a relative atmospheric humidity of approximately 80%. The test is evaluated 8 days after the inoculation. 0% means an efficacy which corresponds to that of the untreated control, while an efficacy of 100% means that no disease is observed.

[4] = test system: Fusarium graminearum; conditions: Table L; 500 ppm a.i.
[5] = test system: Phytophthora infestans; assay: whole plant or invertebrate; conditions: Phytophthora infestans, 72 h; for pest or weed control at 12.5 ppm: 12.5 ppm a.i.; for pest or weed control at 50 ppm: 50 ppm a.i.; for pest or weed control at 10 ppm: 10 ppm a.i.; for pest or weed control at 20 ppm: 20 ppm a.i.
[6] = test system: Alternaria solani; assay: Alternaria test (tomatoes)/protective; conditions: Alternaria solani, 72 h, Table E, read-out: Efficacy in % found; for pest or weed control at 50 ppm: 50 ppm a.i.
Outline: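 Protective test: young tomato plants were sprayed with compound in an acetone/dimethylacetamide emulsifier formulation diluted with water. After drying, plants were inoculated with Alternaria solani spores and kept at ~20 °C and 100% relative humidity. Scored 3 days post-inoculation as % efficacy, where 0% equals untreated control and 100% means no disease.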

[7] = test system: Puccinia triticina; assay: Puccinia triticina-test (wheat)/preventive; conditions: Table M; 500 ppm a.i.
Experimental: as §4, §5
as §6, with “Puccinia triticina.” for “Leptosphaeria nodorum.”, “20°” for “22°”

[8] = test system: Pyrenophora teres; assay: Pyrenophora teres-test (barley)/preventive
Experimental: as §4, §5
as §6, with “Pyrenophora teres.” for “Leptosphaeria nodorum.”, “20°” for “22°”

[9] = read-out: Efficacy in % found, Table A, test 1
[10] = read-out: Efficacy in % found, Table A, test 5
[11] = read-out: Efficacy in % found, Table A, test 6

Cn1c(=O)c2sc3c(=O)n(C)c(=O)c3sc2c1=O [(I-1), 2,6-dimethyl-1H,5H-[1,4]dithiino[2,3-c:5,6-c′]dipyrrole-1,3,5,7(2H,6H)-tetrone]
Efficacy in % found ([1]; test 1, 12.5 ppm a.i.): 26% | Efficacy in % found ([1]; test 1, 25 ppm a.i.): 72% | Efficacy in % found ([1]; test 2, 12.5 ppm a.i.): 14% | Efficacy in % found [2]: 54% | pest or weed control at 500 ppm ([3]; 500 ppm a.i.): 13% | pest or weed control at 1000 ppm ([3]; 1000 ppm a.i.): 11% | Efficacy in % found [4]: 0% | pest or weed control at 12.5 ppm [5, 9]: 0% | pest or weed control at 25 ppm ([5]; read-out: Efficacy in % found, Table A, test 1, 25 ppm a.i.): 5% | pest or weed control at 50 ppm [5, 9]: 18% | pest or weed control at 12.5 ppm ([5]; read-out: Efficacy in % found, Table A, test 2): 35% | pest or weed control at 50 ppm ([5]; read-out: Efficacy in % found, Table A, test 3): 36% | pest or weed control at 50 ppm ([5]; read-out: Efficacy in % found, Table A, test 4): 47% | pest or weed control at 10 ppm [5, 10]: 0% | pest or weed control at 20 ppm [5, 10]: 0% | pest or weed control at 10 ppm [5, 11]: 0% | pest or weed control at 20 ppm [5, 11]: 9% | pest or weed control at 40 ppm ([5]; read-out: Efficacy in % found, Table A, test 6, 40 ppm a.i.): 11% | pest or weed control at 12.5 ppm ([5]; read-out: Efficacy in % found, Table A, test 7): 39% | pest or weed control at 12.5 ppm ([6]; test 1, 12.5 ppm a.i.): 0% | pest or weed control at 50 ppm ([6]; test 1): 45% | pest or weed control at 50 ppm ([6]; test 2): 50% | Efficacy in % found [7]: 10% | Efficacy in % found ([8]; Table I1, 500 ppm a.i.): 10% | Efficacy in % found ([8]; Table I1, 1000 ppm a.i.): 44% | Efficacy in % found ([8]; Table I2, 1000 ppm a.i.): 22%
